Data taken from patent publication US20260262643A1, “HERBICIDAL BENZOXAZINES” (FMC CORPORATION, priority 2022, published 2026).

How the values were obtained:
horseweed = assay: Test C postemergence; assay type: in vivo, Erigeron canadensis; details: postemergence, 10 days
Method in brief: (§1)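 Greenhouse herbicide screen, 10-day duration. Test chemicals in solvent/surfactant blend were sprayed onto soil at sowing (pre) or onto 2–10 cm seedlings at one to two leaves (post); injury scored visually against controls, 0 no effect to 100 complete control.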

wheat [1] = assay: Test C postemergence; assay type: in vivo, Triticum aestivum; details: postemergence, 10 days
Method in brief: as §1

blackgrass [2] = assay: Test C postemergence; assay type: in vivo, Alopecurus myosuroides; details: Alopecurus myosuroides, post-emergence, 240 h, postemergence, 10 days, 0 to 100 scale (0 no effect, 100 complete control), read-out: Plant response rating, Blackgrass
Method in brief: as §1

wheat [3] = assay: Test C preemergence; assay type: in vivo, Triticum aestivum; details: preemergence, 0 to 100 scale (0 no effect, 100 complete control)
Method in brief: as §1

corn [4] = assay: Test C postemergence; assay type: in vivo, Zea mays; details: Zea mays, post-emergence, 240 h, postemergence, 10 days, 0 to 100 scale (0 no effect, 100 complete control)
Method in brief: as §1

foxtail, giant [5] = assay: Test C postemergence; assay type: in vivo, Setaria faberi; details: postemergence, 10 days
Method in brief: as §1

pigweed, palmer [6] = assay: Test C postemergence; assay type: in vivo, Amaranthus palmeri; details: postemergence, 10 days
Method in brief: as §1

blackgrass [7] = assay: Test C preemergence; assay type: in vivo, Alopecurus myosuroides; details: preemergence, 0 to 100 scale (0 no effect, 100 complete control)
Method in brief: as §1

soybean [8] = assay: Test C postemergence; assay type: in vivo, Glycine max; details: postemergence, 10 days
Method in brief: as §1

soybean [9] = assay: Test C preemergence; assay type: in vivo, Glycine max; details: preemergence, 0 to 100 scale (0 no effect, 100 complete control)
Method in brief: as §1

barnyardgrass = assay: Test D flooded paddy test; assay type: in vivo, Echinochloa crus-galli; details: 250 g ai/ha, applied to paddy water, visual rating after 13 to 14 days, scale 0 to 100 (0 no effect, 100 complete control)
Method in brief: (§2)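 Compounds go straight into paddy water over 2-leaf plants in pots flooded to 3 cm. Greenhouse holding lasts 13 to 14 days. Injury is scored by eye against controls from 0 (none) to 100 (complete control).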

ryegrass, Italian [10] = assay: Test C preemergence; assay type: in vivo, Lolium multiflorum; details: preemergence, 0 to 100 scale (0 no effect, 100 complete control)
Method in brief: as §1

kochia = assay: Test C postemergence; assay type: in vivo, Bassia scoparia; details: postemergence, 10 days
Method in brief: as §1

goosegrass [11] = assay: Test C postemergence; assay type: in vivo, Eleusine indica; details: postemergence, 10 days
Text: (§3) Seeds of plant species selected from barnyardgrass (Echinochloa crusgalli), blackgrass (Alopecurus myosuroides), corn (Zea mays), foxtail, giant (giant foxtail, Setaria faberi), green foxtail (Setaria viridis), goosegrass (Eleusine indica), kochia (Bassia scoparia), oat, wild (wild oat, Avena fatua), pigweed, palmer (palmer amaranth, palmer pigweed, Amaranthus palmeri), Pigweed, Redroot (redroot pigweed, Amaranthus retroflexus), ragweed (common ragweed, Ambrosia artemisiifolia), ryegrass, Italian ([…] ryegrass, Lolium multiflorum), soybean (Glycine max), and wheat (Triticum aestivum) were planted into a blend of loam soil and sand and treated preemergence with a directed soil spray using test chemicals formulated in a non-phytotoxic solvent mixture which included a surfactant. At the same time, plants selected from these crops and weed species and also galium (catchweed bedstraw, Galium aparine) and horseweed (Erigeron canadensis) were planted in pots containing the same blend of loam soil and sand and treated with postemergence applications of test chemicals formulated in the same manner. Plants ranged in height from 2 to 10 cm and were in the one- to two-leaf stage for the postemergence treatment. Treated plants and untreated controls were maintained in a greenhouse for 10 days, after which time all treated plants were compared to untreated controls and visually evaluated for injury. Plant response ratings, summarized in Table C, are based on a 0 to 100 scale where 0 is no effect and 100 is complete control. A dash (-) response means no test result.

oat, wild [12] = assay: Test C preemergence; assay type: in vivo, Avena fatua; details: preemergence, 0 to 100 scale (0 no effect, 100 complete control)
Method in brief: as §1

ryegrass, Italian [13] = assay: Test C postemergence; assay type: in vivo, Lolium multiflorum; details: postemergence, 10 days
Method in brief: as §1

goosegrass [14] = assay: Test C preemergence; assay type: in vivo, Eleusine indica; details: preemergence, 0 to 100 scale (0 no effect, 100 complete control)
Text: as §3

ducksalad = assay: Test D flooded paddy test; assay type: in vivo, Heteranthera limosa; details: 250 g ai/ha, applied to paddy water, visual rating after 13 to 14 days, scale 0 to 100 (0 no effect, 100 complete control)
Method in brief: as §2

sedge, umbrella = assay: Test D flooded paddy test; assay type: in vivo, Cyperus difformis; details: 250 g ai/ha, applied to paddy water, visual rating after 13 to 14 days, scale 0 to 100 (0 no effect, 100 complete control)
Method in brief: as §2

pigweed, palmer [15] = assay: Test C preemergence; assay type: in vivo, Amaranthus palmeri; details: preemergence, 0 to 100 scale (0 no effect, 100 complete control)
Method in brief: as §1

galium = assay: Test C postemergence; assay type: in vivo, Galium aparine; details: postemergence, 10 days
Method in brief: as §1

ragweed [16] = assay: Test C postemergence; assay type: in vivo, Ambrosia artemisiifolia; details: postemergence, 10 days
Method in brief: as §1

foxtail, giant [17] = assay: Test C preemergence; assay type: in vivo, Setaria faberi; details: preemergence, 0 to 100 scale (0 no effect, 100 complete control)
Method in brief: as §1

oat, wild [18] = assay: Test C postemergence; assay type: in vivo, Avena fatua; details: postemergence, 10 days
Method in brief: as §1

corn [19] = assay: Test C preemergence; assay type: in vivo, Zea mays; details: preemergence, 0 to 100 scale (0 no effect, 100 complete control)
Method in brief: as §1

ragweed [20] = assay: Test C preemergence; assay type: in vivo, Ambrosia artemisiifolia; details: preemergence, 0 to 100 scale (0 no effect, 100 complete control)
Method in brief: as §1

rice = assay: Test D flooded paddy test; assay type: in vivo, Oryza sativa; details: 250 g ai/ha, applied to paddy water, visual rating after 13 to 14 days, scale 0 to 100 (0 no effect, 100 complete control)
Method in brief: as §2

[21] = 125 g ai/ha, 0 to 100 scale, 0 no effect, 100 complete control
[22] = 500 g ai/ha, 0 to 100 scale (0 no effect, 100 complete control)

CC1Oc2ccccc2N(C(=O)c2cccc(-n3cncn3)c2)C1C (centres unmarked) [Compound 285]
Plant response rating, Horseweed (horseweed; [21]): 0
Plant response rating, Horseweed (horseweed; [22]): 0
Plant response rating, Wheat (wheat [1]; [21]): 0
Plant response rating, Wheat (wheat [1]; [22]): 0
pest or weed control at 125 g/ha (blackgrass [2]; 125 g ai/ha): 0%
pest or weed control at 500 g/ha (blackgrass [2]; 500 g ai/ha): 0%
Wheat plant response rating (wheat [3]; 500 g ai/ha): 0
Wheat plant response rating (wheat [3]; Test C, 125 g ai/ha): 0
Corn plant response rating (crop injury, 0 = no effect, 100 = complete kill) at 125 g/ha (corn [4]; 125 g ai/ha): 0%
Corn plant response rating (crop injury, 0 = no effect, 100 = complete kill) at 500 g/ha (corn [4]; 500 g ai/ha): 0%
Plant response rating, Foxtail, Giant (foxtail, giant [5]; [21]): 0
Plant response rating, Foxtail, Giant (foxtail, giant [5]; [22]): 0
Plant response rating, Pigweed, Palmer (pigweed, palmer [6]; [21]): 0
Plant response rating, Pigweed, Palmer (pigweed, palmer [6]; [22]): 0
Blackgrass plant response rating (blackgrass [7]; 500 g ai/ha): 0
Blackgrass plant response rating (blackgrass [7]; Test C, 125 g ai/ha): 0
Plant response rating, Soybean (soybean [8]; [21]): 0
Plant response rating, Soybean (soybean [8]; [22]): 10
Soybean plant response rating (soybean [9]; 500 g ai/ha): 0
Soybean plant response rating (soybean [9]; Test C, 125 g ai/ha): 0
Plant response rating, Barnyardgrass (Flood) (barnyardgrass): 0
Ryegrass, Italian plant response rating (ryegrass, Italian [10]; 500 g ai/ha): 30
Ryegrass, Italian plant response rating (ryegrass, Italian [10]; Test C, 125 g ai/ha): 20
Plant response rating, Kochia (kochia; [21]): 0
Plant response rating, Kochia (kochia; [22]): 0
Plant response rating, Goosegrass (goosegrass [11]; [21]): 0
Plant response rating, Goosegrass (goosegrass [11]; [22]): 0
Oat, Wild plant response rating (oat, wild [12]; 500 g ai/ha): 0
Oat, Wild plant response rating (oat, wild [12]; Test C, 125 g ai/ha): 0
Plant response rating, Ryegrass, Italian (ryegrass, Italian [13]; [21]): 0
Plant response rating, Ryegrass, Italian (ryegrass, Italian [13]; [22]): 0
Goosegrass plant response rating (goosegrass [14]; 500 g ai/ha): 0
Goosegrass plant response rating (goosegrass [14]; Test C, 125 g ai/ha): 0
Plant response rating, Ducksalad (Flood) (ducksalad): 0
Plant response rating, Sedge, Umbrella (Flood) (sedge, umbrella): 0
Pigweed, Palmer plant response rating (pigweed, palmer [15]; 500 g ai/ha): 0
Pigweed, Palmer plant response rating (pigweed, palmer [15]; Test C, 125 g ai/ha): 0
Plant response rating, Galium (galium; [21]): 0
Plant response rating, Galium (galium; [22]): 30
Plant response rating, Ragweed (ragweed [16]; [21]): 0
Plant response rating, Ragweed (ragweed [16]; [22]): 0
Foxtail, Giant plant response rating (foxtail, giant [17]; 500 g ai/ha): 0
Foxtail, Giant plant response rating (foxtail, giant [17]; Test C, 125 g ai/ha): 0
Plant response rating, Oat, Wild (oat, wild [18]; [21]): 0
Plant response rating, Oat, Wild (oat, wild [18]; [22]): 0
Corn plant response rating (corn [19]; 500 g ai/ha): 0
Corn plant response rating (corn [19]; Test C, 125 g ai/ha): 0
Ragweed plant response rating (ragweed [20]; 500 g ai/ha): 0
Ragweed plant response rating (ragweed [20]; Test C, 125 g ai/ha): 0
Plant response rating, Rice (Flood) (rice): 0
